The values that follow come from PubChem BioAssay (NCI).

Among the test systems are 786-0 renal; HCT-116 colon; HOP-62 NSCLC; HOP-92 NSCLC; K-562 leukemia; NCI-H460 lung; SF-295 CNS; SR leukemia; TK-10 renal; RXF 393 renal.
Holding throughout (experiment): inhibition of tumour cell growth, NCI panel, 48 h

Molecules are shown by their SMILES. “And” between values parts separate entries of the source, which are not always exact repeats. Identical values can stand only once.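 Compound exposure: 48 hours, 5 concentrations, 96-well plates. GI50 is the concentration that inhibits growth by half. At the TGI there is no net growth.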

For the compound `O=C1Nc2ccc(O)cc2/C1=C\c1ccncc1`, the GI50 was 18.5 µM with 786-0 renal; 14.7 µM in the test on HCT-116 colon; 23.9 µM in the test with HOP-62 NSCLC; 31.2 µM in the test with HOP-92 NSCLC; 17.7 µM in the test with K-562 leukemia; 12.7 µM in the test on NCI-H460 lung. For the same compound, the GI50 in the test on SF-295 CNS is 25.9 µM; in the test on SR leukemia, 3.75 µM; in the test on TK-10 renal it was 18.6 µM. Moreover, the TGI in the test on 786-0 renal was 39 µM; in the test on HCT-116 colon, 39.9 µM; with HOP-62 NSCLC, 56.4 µM; in the test with HOP-92 NSCLC it was more than 100 µM; with K-562 leukemia it was 56.2 µM; in the test with NCI-H460 lung it was 42.9 µM. Further, the TGI in the test on SF-295 CNS worked out at 77.8 µM; in the test with SR leukemia, 17.8 µM; with TK-10 renal, 39.8 µM.
Take `O=C1c2cccc([N+](=O)[O-])c2C(=O)c2nccnc21`: the TGI came out at 3.2 µM with 786-0 renal; 3.66 µM with HCT-116 colon; 18.6 µM with HOP-92 NSCLC; 4.17 µM in the test on K-562 leukemia; 2.79 µM in the test on NCI-H460 lung; 3.71 µM with RXF 393 renal. The figures for the TGI with SF-295 CNS, with SR leukemia and in the test on TK-10 renal were 3.5 µM, 5.04 µM and 3.85 µM, respectively.
As for `O=C(CN(Cc1ccccc1)Cc1ccccc1)N1CCc2c([nH]c3ccccc23)C1c1cccnc1` (centres undefined), the TGI is 33.4 µM in the test on 786-0 renal; 16.2 µM with HCT-116 colon; more than 100 µM in the test with HOP-62 NSCLC; 12.8 µM in the test on HOP-92 NSCLC; more than 100 µM in the test with K-562 leukemia; 89.9 µM with NCI-H460 lung. Also, the TGI was more than 100 µM in the test with SF-295 CNS, 30.6 µM in the test on SR leukemia and more than 100 µM with TK-10 renal.
As to `C/C=C(\C)c1cc(=O)c2c(C)cc3c(c2o1)C(OC)(OC(C)=O)c1c(O)c(C2CC(C)(N(C)C)C(OC(C)=O)C(C)O2)cc(C2CC(N(C)C)C(OC(C)=O)C(C)O2)c1C3=O` (centres undefined), the TGI with 786-0 renal is more than 21.4 µM; with HCT-116 colon, more than 34.1 µM; in the test on HOP-62 NSCLC, more than 100 µM; in the test with HOP-92 NSCLC it was 6.91 µM; in the test with SF-295 CNS it was 14.6 µM; in the test on SR leukemia it was 0.842 µM. For the same compound, the TGI in the test with TK-10 renal was more than 100 µM.
Regarding `CS(=O)(=O)O[C@H]1C(=O)N(c2cc3c4ccccc4ccc3c3ccccc23)[C@@H]1c1ccccn1`, the GI50 in the test with 786-0 renal was 0.348 µM; with HCT-116 colon it was 0.372 µM; with HOP-62 NSCLC, 0.612 µM; in the test on HOP-92 NSCLC, 0.395 µM; with NCI-H460 lung it was 2.39 µM; in the test with RXF 393 renal, 0.242 µM. For the same compound, the results for the GI50 in the test with SF-295 CNS, in the test on SR leukemia and in the test on TK-10 renal were 0.291 µM, 0.384 µM and 0.996 µM, respectively. Further, the TGI is 31.7 µM in the test with 786-0 renal; 23 µM with HCT-116 colon; more than 100 µM in the test with HOP-62 NSCLC; 56.3 µM with HOP-92 NSCLC; more than 100 µM in the test with NCI-H460 lung; 0.878 µM in the test on RXF 393 renal. For the same compound, the results for the TGI in the test with SF-295 CNS, in the test with SR leukemia and in the test with TK-10 renal were 11.8 µM, more than 100 µM and more than 100 µM, respectively.
As for `CCOC(=O)NC(=O)c1cn(CCCCCCCCCCC(=O)NCCCN2CCN(CCCNC(=O)CCCCCCCCCCn3cc(C(=O)NC(=O)OCC)c(=O)[nH]c3=O)CC2)c(=O)[nH]c1=O`, the TGI in the test with 786-0 renal was more than 100 µM; in the test with HCT-116 colon it was more than 100 µM; in the test with HOP-62 NSCLC it was more than 10 µM; with HOP-92 NSCLC, more than 100 µM; with K-562 leukemia it was more than 100 µM; in the test on NCI-H460 lung it was more than 100 µM. The TGI in the test on SF-295 CNS, in the test with SR leukemia and in the test with TK-10 renal was more than 100 µM throughout.
Turning to `CS(=O)(=O)c1ccc2c(c1)C(=O)c1c-2n(CCCBr)c(=O)c2cc([N+](=O)[O-])ccc12`, the GI50 in the test on 786-0 renal is 6.07 µM; in the test with HCT-116 colon, 7.44 µM; with HOP-62 NSCLC it was 8.14 µM; in the test with HOP-92 NSCLC it was 10.9 µM; in the test on K-562 leukemia it was 5.15 µM; in the test with NCI-H460 lung, 0.718 µM. For the same compound, the GI50 was 2.07 µM with SF-295 CNS, 1.06 µM in the test on SR leukemia and 40.2 µM with TK-10 renal. Also, the TGI was more than 100 µM with 786-0 renal; more than 100 µM in the test on HCT-116 colon; more than 100 µM in the test on HOP-62 NSCLC; 40 µM with HOP-92 NSCLC; more than 100 µM with K-562 leukemia; more than 100 µM in the test with NCI-H460 lung. The TGI is 33.5 µM in the test on SF-295 CNS, more than 100 µM with SR leukemia and more than 100 µM with TK-10 renal.
As to `CCC1=C[C@@H]2CN(C1)Cc1c([nH]c3ccccc13)[C@@](C(=O)OC)(c1cc3c(cc1OC)N(C)[C@H]1[C@@](O)(C(=O)OC)[C@H](OC(C)=O)[C@]4(CC)C=CCN5CC[C@]31[C@@H]54)C2`, the GI50 with 786-0 renal was less than 0.0205 µM; in the test on HCT-116 colon, less than 0.01 µM; with HOP-62 NSCLC, less than 0.0148 µM; with HOP-92 NSCLC it was less than 0.0471 µM; in the test on K-562 leukemia, less than 0.01 µM; with NCI-H460 lung it was less than 0.01 µM. Further, the GI50 was less than 0.01 µM in the test with SF-295 CNS, less than 0.01 µM with SR leukemia and 0.641 µM in the test on TK-10 renal. Also, the TGI in the test with 786-0 renal was 13 µM; with HCT-116 colon, more than 40.4 µM; in the test with HOP-62 NSCLC, 24.4 µM; in the test on HOP-92 NSCLC, 0.554 µM; in the test with K-562 leukemia it was 18.9 µM; in the test with NCI-H460 lung, 0.444 µM. Further, the TGI with SR leukemia is 1.95 µM; in the test with TK-10 renal it was 16.7 µM.
As to `Cc1cc(O[C@@H]2O[C@@H](C)[C@H](O)[C@@H](O)[C@H]2O)c2c3c(c(O[C@@H]4O[C@@H](C)[C@H](O)[C@@H](O)[C@H]4O)cc2c1)C(=O)c1c(O)cccc1C3=O`, the GI50 with 786-0 renal, in the test on HCT-116 colon, in the test on HOP-62 NSCLC, with HOP-92 NSCLC, with K-562 leukemia and in the test on NCI-H460 lung was more than 30 µM throughout. Further, the GI50 in the test with RXF 393 renal, in the test with SF-295 CNS and with SR leukemia was more than 30 µM throughout. Also, the TGI in the test with 786-0 renal, with HCT-116 colon, in the test with HOP-62 NSCLC, in the test on HOP-92 NSCLC, in the test with K-562 leukemia and with NCI-H460 lung was more than 30 µM throughout. The TGI in the test on RXF 393 renal, with SF-295 CNS and in the test with SR leukemia was more than 30 µM each time.
Regarding `Cc1cc(Cl)ccc1NC(=O)CC1SC(=NC(=O)c2ccccc2Cl)NC1=O` (centres undefined), the TGI is 35.7 µM in the test with 786-0 renal; 32 µM in the test on HCT-116 colon; 35.9 µM in the test with HOP-92 NSCLC; 47.6 µM in the test with K-562 leukemia; more than 100 µM with NCI-H460 lung; 35.1 µM with RXF 393 renal. Further, the values for the TGI with SF-295 CNS and in the test on SR leukemia were more than 100 µM and 34.5 µM, respectively.
Turning to `C[C@]12CCCN1CC1=NNC(=O)c3cc(F)cc4[nH]c2c1c34`, the GI50 in the test with 786-0 renal is 26.2 µM; in the test on HCT-116 colon it was 14.2 µM; in the test on HOP-62 NSCLC it was 20.1 µM; in the test on HOP-92 NSCLC, 2.71 µM; with NCI-H460 lung it was 11.5 µM; in the test with SF-295 CNS, 16.1 µM. Also, the GI50 in the test with SR leukemia was 3.57 µM; in the test with TK-10 renal, 22.6 µM. Further, the TGI with 786-0 renal is more than 100 µM; with HCT-116 colon, more than 100 µM; in the test on HOP-62 NSCLC, 89.4 µM; in the test with HOP-92 NSCLC it was 20.7 µM; with NCI-H460 lung, more than 100 µM; in the test with SF-295 CNS, 51.1 µM. For the same compound, the TGI in the test on SR leukemia and in the test on TK-10 renal was more than 100 µM throughout.
As to `COc1ccc(N=N/C(=N\NC(=O)c2cc(Br)ccc2O)c2ccc(N(CCC#N)CCC#N)cc2OC)cc1`, the GI50 with 786-0 renal was 64.6 µg/mL; in the test with HCT-116 colon it was 60.6 µg/mL; in the test with HOP-92 NSCLC, 81.9 µg/mL; with K-562 leukemia it was 74.9 µg/mL; in the test with NCI-H460 lung it was 33.5 µg/mL; in the test with RXF 393 renal, 50.2 µg/mL. The GI50 in the test with SF-295 CNS was 73.8 µg/mL; in the test with SR leukemia, 62.8 µg/mL. Further, the TGI in the test on 786-0 renal is more than 150 µg/mL; in the test on HCT-116 colon it was more than 150 µg/mL; with HOP-92 NSCLC, more than 150 µg/mL; in the test with K-562 leukemia, more than 150 µg/mL; in the test on NCI-H460 lung, 109 µg/mL; with RXF 393 renal, more than 150 µg/mL. Besides, the TGI in the test on SF-295 CNS and in the test with SR leukemia was more than 150 µg/mL in each case.
`COC(=O)[C@H](Cc1ccccc1)NNC(=O)c1csc([C@@H](C[C@H](C(C)C)N(C)C(=O)[C@@H](NC(=O)[C@H]2CCCCN2C)C2CC2)OC(C)=O)n1`: the TGI in the test with 786-0 renal is 25 µM and > 100 µM; in the test on HCT-116 colon, 25 µM and > 100 µM; in the test on HOP-62 NSCLC it was 25 µM and > 100 µM; with K-562 leukemia, 25 µM and > 100 µM; in the test with NCI-H460 lung, 25 µM and > 100 µM; in the test on RXF 393 renal, 25 µM. Also, the TGI with SF-295 CNS was 25 µM and > 100 µM; in the test on SR leukemia it was 25 µM and > 100 µM; in the test on TK-10 renal, 25 µM and > 100 µM. For the same compound, the GI50 in the test on K-562 leukemia is 0.00302 µM and 0.0025 µM and 0.0243 µM; with RXF 393 renal, 0.0025 µM; with SR leukemia it was 0.00139 µM and 0.0025 µM.
`CC12CC/C(=N/NC(N)=O)C3C1CCCC32`: the TGI in the test on 786-0 renal, with HCT-116 colon, in the test on HOP-62 NSCLC, with HOP-92 NSCLC, in the test on K-562 leukemia and in the test on NCI-H460 lung was more than 100 µM throughout. For the same compound, the TGI in the test on SF-295 CNS, in the test on SR leukemia and in the test on TK-10 renal was more than 100 µM in each case.
